The results in this text go back to patent US20260207563A1, “UREA COMPOUNDS AS ACTIVATORS OF POTASSIUM CHANNELS KV7.2/7.3 USEFUL IN THE TREATMENT OF CNS AND PNS DISORDERS” (ANGELINI PHARMA S.P.A., priority 2022, published 2026).

Holding throughout (type): cell-based
Test [1] addresses T1, heteromeric KV7.3/KV7.5 channel (KCNQ3, KCNQ5) (Homo sapiens, UniProt O43525+Q9NR82).
T1 construct: host or cells: HEK293
The test is described as follows: Automated patch-clamp counter-screening against KV7.3/KV7.5 channel. To be noted: HEK293 cells expressing Kv7.3/KV7.5; class by maximal shift in the Vhalf at 30 μM. In short, it runs like this:
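Potency came from a 4-parameter logistic fit of mean voltage-of-half-activation shifts, yielding EC50 and maximal shift; selectivity was judged on the shift at 30 μM. Compounds were applied at ten 3-fold dilutions from 30 μM in quadruplicate to HEK293 cells stably carrying Kv7.3 with tet-inducible Kv7.5.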

The target in test [2] is T2, heteromeric KV7.2/KV7.3 channels (KCNQ2, KCNQ3) (Homo sapiens, UniProt O43525+O43526).
T2 construct: expressed in transfected cells; host or cells: CHO-K1
Kind of test: Automated patch-clamp (Sophion Qube 384) potency assay against KV7.2/KV7.3 channels. To be noted: CHO-K1/Kv7.2/Kv7.3 cells; for EC50: EC50 from concentration-response of shift in Vhalf, 10 concentrations up to 30 μM, read-out: Kv7.2/7.3 EC50; for Kv7.2/7.3 ΔV1/2: maximal shift in the Vhalf from the top of the curve. The method in brief:
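Activator potency: EC50 from 4-parameter logistic fit of mean Vhalf shift across ten 1-in-3 dilutions starting at 30 μM (n=4), with DMSO (typically 0.3%) control. Currents recorded by leak-subtracted whole-cell clamp of stable CHO-K1 KV7.2/KV7.3 cells, held at −80 mV, stepped −100 to +20 mV then 0 mV tails.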

The target in test [3] is T3, homomeric KV7.4 channel (KCNQ4) (Homo sapiens, UniProt P56696).
T3 construct: host or cells: CHO-K1
Kind of test: Automated patch-clamp (Qube) counter-screening assay against KV7.4 channel. To be noted: CHO-K1 cells expressing KV7.4; class by maximal shift in the Vhalf at 30 μM. The method in brief: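 EC50 and maximal shift in half-activation voltage come from 4-parameter logistic fits of mean Vhalf shifts. The series had ten 1-in-3 concentrations, highest 30 μM, each tested in quadruplicate. Recordings used automated Qube patch clamp on a stable CHO-K1 line expressing KCNQ4, and selectivity was judged from the 30 μM Vhalf shift.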

With `O=C(NCc1ccnc(OCC(F)(F)F)c1)N[C@H]1CCCC[C@@H]1O` [Compound 63, 1-((1S,2S)-2-Hydroxycyclohexyl)-3-((2-(2,2,2-trifluoroethoxy)pyridin-4-yl)methyl)urea], the Kv7.3/7.5 selectivity criteria entry in test [1] is “B (Non-selective compounds showed Kv7.4 and/or Kv7.3/7.5 ΔV1/2 higher than 15 mV (letter B in table 3))”. In test [2], the EC50 came out at 11.8 µM and the “Kv7.2/7.3 ΔV1/2” value was found to be 33.01 mV. Also, in test [3], the Kv7.4 selectivity criteria entry is “B (Non-selective compounds showed Kv7.4 and/or Kv7.3/7.5 ΔV1/2 higher than 15 mV (letter B in table 3))”.

On to `C[C@@H](NC(=O)NCCC1(C(F)(F)F)CC1)c1ccnc(OCC(F)(F)F)c1` [Compound 65, (R)-1-(1-(2-(2,2,2-Trifluoroethoxy)pyridin-4-yl)ethyl)-3-(2-(1-(trifluoromethyl)cyclopropyl)ethyl)urea], for which the Kv7.3/7.5 selectivity criteria result in test [1] is listed as “A (Selective compounds showed Kv7.4 and/or Kv7.3/7.5 ΔV1/2 equal to or lower than 15 mV (letter A in table 3))”. In test [2], the EC50 amounted to 0.152 µM and the “Kv7.2/7.3 ΔV1/2” value stood at 26.28 mV. In addition, the Kv7.4 selectivity criteria entry in test [3] is on record as “A (Selective compounds showed Kv7.4 and/or Kv7.3/7.5 ΔV1/2 equal to or lower than 15 mV (letter A in table 3))”.

Regarding `C[C@H](NC(=O)NCCC1(C(F)(F)F)CC1)c1ccnc(OCC(F)(F)F)c1` [Compound 67, (S)-1-(1-(2-(2,2,2-Trifluoroethoxy)pyridin-4-yl)ethyl)-3-(2-(1-(trifluoromethyl)cyclopropyl)ethyl)urea], in test [1], the Kv7.3/7.5 selectivity criteria entry was “A (Selective compounds showed Kv7.4 and/or Kv7.3/7.5 ΔV1/2 equal to or lower than 15 mV (letter A in table 3))”. Besides, in test [2], the EC50 amounted to 5 µM and the “Kv7.2/7.3 ΔV1/2” value is 23.87 mV. In addition, in test [3], the Kv7.4 selectivity criteria result is given as “A (Selective compounds showed Kv7.4 and/or Kv7.3/7.5 ΔV1/2 equal to or lower than 15 mV (letter A in table 3))”.

Take `CN(CC(F)(F)F)c1cc(CNC(=O)NCCC2(C(F)(F)F)CC2)ccn1` [Compound 68, 1-((2-(Methyl(2,2,2-trifluoroethyl)amino)pyridin-4-yl)methyl)-3-(2-(1-(trifluoromethyl)cyclopropyl)ethyl)urea]: in test [1], the Kv7.3/7.5 selectivity criteria result is on record as “A (Selective compounds showed Kv7.4 and/or Kv7.3/7.5 ΔV1/2 equal to or lower than 15 mV (letter A in table 3))”. Further, in test [2], the EC50 came out at 4.73 µM and the “Kv7.2/7.3 ΔV1/2” value is on record as 27.19 mV. Further, the Kv7.4 selectivity criteria entry in test [3] is “A (Selective compounds showed Kv7.4 and/or Kv7.3/7.5 ΔV1/2 equal to or lower than 15 mV (letter A in table 3))”.

Turning to `O=C(NCCC1(C(F)(F)F)CC1)NCc1ccnc(C(F)(F)F)c1` [Compound 69, 1-(2-(1-(Trifluoromethyl)cyclopropyl)ethyl)-3-((2-(trifluoromethyl)pyridin-4-yl)methyl)urea], the Kv7.3/7.5 selectivity criteria entry in test [1] was “A (Selective compounds showed Kv7.4 and/or Kv7.3/7.5 ΔV1/2 equal to or lower than 15 mV (letter A in table 3))”. Further, in test [2], the EC50 is 4.28 µM and the “Kv7.2/7.3 ΔV1/2” value stood at 23.15 mV. For the same molecule, the Kv7.4 selectivity criteria entry in test [3] is recorded as “A (Selective compounds showed Kv7.4 and/or Kv7.3/7.5 ΔV1/2 equal to or lower than 15 mV (letter A in table 3))”.

With `O=C(NCc1ccnc(OCC(F)(F)F)c1)NCC1CCC(F)(F)CC1` [Compound 70, 1-((4,4-Difluorocyclohexyl)methyl)-3-((2-(2,2,2-trifluoroethoxy)pyridin-4-yl)methyl)urea], the Kv7.3/7.5 selectivity criteria result in test [1] is recorded as “A (Selective compounds showed Kv7.4 and/or Kv7.3/7.5 ΔV1/2 equal to or lower than 15 mV (letter A in table 3))”. For the same molecule, in test [2], the EC50 was determined as 0.975 µM and the “Kv7.2/7.3 ΔV1/2” value turned out to be 26.04 mV. Besides, in test [3], the Kv7.4 selectivity criteria entry is reported as “A (Selective compounds showed Kv7.4 and/or Kv7.3/7.5 ΔV1/2 equal to or lower than 15 mV (letter A in table 3))”.

Regarding `O=C(NCc1ccnc(OCC(F)(F)F)c1)NC1CCC(F)(F)CC1` [Compound 71, 1-(4,4-Difluorocyclohexyl)-3-((2-(2,2,2-trifluoroethoxy)pyridin-4-yl)methyl)urea], the Kv7.3/7.5 selectivity criteria result in test [1] is listed as “B (Non-selective compounds showed Kv7.4 and/or Kv7.3/7.5 ΔV1/2 higher than 15 mV (letter B in table 3))”. In addition, in test [2], the EC50 worked out at 1.58 µM and the “Kv7.2/7.3 ΔV1/2” value was determined as 55.93 mV. Further, in test [3], the Kv7.4 selectivity criteria entry is “B (Non-selective compounds showed Kv7.4 and/or Kv7.3/7.5 ΔV1/2 higher than 15 mV (letter B in table 3))”.

As for `CC(C)(C)[C@@H](O)CNC(=O)NCc1ccnc(OCC(F)(F)C(F)(F)F)c1` [Compound 73, (R)-1-(2-Hydroxy-3,3-dimethylbutyl)-3-((2-(2,2,3,3,3-pentafluoropropoxy)pyridin-4-yl)methyl)urea], the Kv7.3/7.5 selectivity criteria entry in test [1] is reported as “A (Selective compounds showed Kv7.4 and/or Kv7.3/7.5 ΔV1/2 equal to or lower than 15 mV (letter A in table 3))”. In addition, in test [2], the EC50 was found to be 2.47 µM and the “Kv7.2/7.3 ΔV1/2” value worked out at 26.35 mV. In addition, in test [3], the Kv7.4 selectivity criteria result is “A (Selective compounds showed Kv7.4 and/or Kv7.3/7.5 ΔV1/2 equal to or lower than 15 mV (letter A in table 3))”.

With `O=C(NCCC1(C(F)(F)F)CC1)NCc1ccnc(OCCC(F)(F)F)c1` [Compound 74, 1-(2-(1-(Trifluoromethyl)cyclopropyl)ethyl)-3-((2-(3,3,3-trifluoropropoxy)pyridin-4-yl)methyl)urea], the Kv7.3/7.5 selectivity criteria result in test [1] is on record as “A (Selective compounds showed Kv7.4 and/or Kv7.3/7.5 ΔV1/2 equal to or lower than 15 mV (letter A in table 3))”. For the same molecule, in test [2], the EC50 was determined as 1.78 µM and the “Kv7.2/7.3 ΔV1/2” value is given as 26.68 mV. Also, the Kv7.4 selectivity criteria result in test [3] is reported as “A (Selective compounds showed Kv7.4 and/or Kv7.3/7.5 ΔV1/2 equal to or lower than 15 mV (letter A in table 3))”.

On to `O=C(NCc1ccnc(OCC(F)(F)F)c1)NCc1ccccc1Cl` [Compound 75, 1-(2-Chlorobenzyl)-3-((2-(2,2,2-trifluoroethoxy)pyridin-4-yl)methyl)urea], for which the Kv7.3/7.5 selectivity criteria entry in test [1] was “A (Selective compounds showed Kv7.4 and/or Kv7.3/7.5 ΔV1/2 equal to or lower than 15 mV (letter A in table 3))”. Moreover, in test [2], the EC50 is 0.508 µM and the “Kv7.2/7.3 ΔV1/2” value is 25.35 mV. The Kv7.4 selectivity criteria result in test [3] is recorded as “B (Non-selective compounds showed Kv7.4 and/or Kv7.3/7.5 ΔV1/2 higher than 15 mV (letter B in table 3))”.

As for `O=C(NCc1ccnc(OCC(F)(F)F)c1)Nc1cc(F)cc(Cl)c1` [Compound 77, 1-(3-Chloro-5-fluorophenyl)-3-((2-(2,2,2-trifluoroethoxy)pyridin-4-yl)methyl)urea], the Kv7.3/7.5 selectivity criteria result in test [1] is reported as “A (Selective compounds showed Kv7.4 and/or Kv7.3/7.5 ΔV1/2 equal to or lower than 15 mV (letter A in table 3))”. In test [2], the EC50 worked out at 0.549 µM and the “Kv7.2/7.3 ΔV1/2” value amounted to 32.37 mV. For the same molecule, the Kv7.4 selectivity criteria entry in test [3] is “B (Non-selective compounds showed Kv7.4 and/or Kv7.3/7.5 ΔV1/2 higher than 15 mV (letter B in table 3))”.

Consider `CC(C)(C)[C@@H](O)CNC(=O)NCc1ccnc(OCCC(F)(F)F)c1` [Compound 78, (R)-1-(2-Hydroxy-3,3-dimethylbutyl)-3-((2-(3,3,3-trifluoropropoxy)pyridin-4-yl)methyl)urea], for which, in test [1], the Kv7.3/7.5 selectivity criteria entry is reported as “A (Selective compounds showed Kv7.4 and/or Kv7.3/7.5 ΔV1/2 equal to or lower than 15 mV (letter A in table 3))”. Also, in test [2], the EC50 came out at 11.7 µM and the “Kv7.2/7.3 ΔV1/2” value came out at 19.21 mV. Also, the Kv7.4 selectivity criteria entry in test [3] is recorded as “A (Selective compounds showed Kv7.4 and/or Kv7.3/7.5 ΔV1/2 equal to or lower than 15 mV (letter A in table 3))”.

As for `O=C(NCc1ccnc(OCC(F)(F)F)c1)NCC1CCCC(F)(F)C1` (stereo not drawn) [Compound 79, 1-((3,3-Difluorocyclohexyl)methyl)-3-((2-(2,2,2-trifluoroethoxy)pyridin-4-yl)methyl) urea], the Kv7.3/7.5 selectivity criteria result in test [1] is reported as “A (Selective compounds showed Kv7.4 and/or Kv7.3/7.5 ΔV1/2 equal to or lower than 15 mV (letter A in table 3))”. For the same molecule, in test [2], the EC50 is 0.862 µM and the “Kv7.2/7.3 ΔV1/2” value stood at 26.55 mV. In addition, the Kv7.4 selectivity criteria result in test [3] is “A (Selective compounds showed Kv7.4 and/or Kv7.3/7.5 ΔV1/2 equal to or lower than 15 mV (letter A in table 3))”.

For `O=C(NCCC1(C(F)(F)F)CC1)NCc1ccc(OCC(F)(F)F)nc1` [Compound 80, 1-((6-(2,2,2-Trifluoroethoxy)pyridin-3-yl)methyl)-3-(2-(1-(trifluoromethyl)cyclopropyl)ethyl)urea], the Kv7.3/7.5 selectivity criteria entry in test [1] is given as “A (Selective compounds showed Kv7.4 and/or Kv7.3/7.5 ΔV1/2 equal to or lower than 15 mV (letter A in table 3))”. Further, in test [2], the EC50 was determined as 3.9 µM and the “Kv7.2/7.3 ΔV1/2” value was determined as 28.15 mV. In test [3], the Kv7.4 selectivity criteria entry is “B (Non-selective compounds showed Kv7.4 and/or Kv7.3/7.5 ΔV1/2 higher than 15 mV (letter B in table 3))”.

For `O=C(NCCC1(C(F)(F)F)CC1)NCc1cc(OCC(F)(F)F)nc(C(F)(F)F)c1` [Compound 82, 1-((2-(2,2,2-Trifluoroethoxy)-6-(trifluoromethyl)pyridin-4-yl)methyl)-3-(2-(1-(trifluoromethyl)cyclopropyl)ethyl)urea], the Kv7.3/7.5 selectivity criteria entry in test [1] is reported as “A (Selective compounds showed Kv7.4 and/or Kv7.3/7.5 ΔV1/2 equal to or lower than 15 mV (letter A in table 3))”. In test [2], the EC50 was found to be 2.15 µM and the “Kv7.2/7.3 ΔV1/2” value was 18.38 mV. For the same molecule, the Kv7.4 selectivity criteria entry in test [3] was “B (Non-selective compounds showed Kv7.4 and/or Kv7.3/7.5 ΔV1/2 higher than 15 mV (letter B in table 3))”.
